For 13 molecules, IC50 results are on record in patent US20220389061A1, “IMMUNOMODULATORS” (priority 2019, published 2022).

In this assay the target is T1, PD-1/PD-L1 (Homo sapiens, UniProt Q9NZQ7).
T1 construct: TVMV protease site linker (C); made in house; host or cells: HEK293T cells
Nature of the assay: PD-1/PD-L1 Homogenous Time-Resolved Fluorescence (HTRF) binding assay. In short, it runs like this:
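HTRF read-out using europium cryptate anti-Ig (1 nM) and APC anti-His (20 nM) on extracellular-domain fusion proteins in dPBS/0.1% BSA/0.05% Tween-20. Inhibitor first incubated 15 min with 10 nM PD-L1-His, followed by 20 nM PD-1-Ig for another 15 min.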
A general note: TR-FRET usually uses a lanthanide donor and a delayed reading to cut background.

[1] abbreviates: PD-L1-His 10 nM pre-incubated with inhibitor, PD-1-Ig 20 nM, read-out: HTRF IC50.

pIC50: −log10 of the molar value. Where two headings read alike, the source gives them in different places. Starred links: 1 amine or outer side, 2 acyl side, 3 side chain; linkers in the order of their positions; H or OH if unused. Positions of bridges follow the written chain, without caps; N, C: chain ends. Non-standard residues stand in square brackets, D forms with d. Residues, ends and D or L forms follow the SMILES beside them. Groups on a side chain read outwards from the residue. *: point of attachment. Trp(1-CH2CO2Me) = COC(=O)Cn1cc(C[C@H](N)C(=O)O)c2ccccc21; Trp(1-CH2COOH) = N[C@@H](Cc1cn(CC(=O)O)c2ccccc12)C(=O)O; Benzofuran(2-CO) = O=C(c1cc2ccccc2o1)*; X8 = NC(=O)c1c[nH]c2c(NC(=S)*)cccc12; X31 = S=C(Nc1cccc2c(Cl)c[nH]c12)*; Hyp = O=C(O)[C@@H]1C[C@@H](O)CN1; X14 = Cc1c[nH]c2c(NC(=S)*)cccc12; X72 = COc1ccc2nccc(C(=O)*)c2c1; NMeNle = CCCC[C@H](NC)C(=O)O; X12 = S=C(Nc1ccc2ccccc2c1)*; X54 = S=C(Nc1cccc2ncccc12)*; X82 = S=C(Nc1cccc2nsnc12)*; X93 = c1cc2c(c(N*)c1)CCCC2; X48 = O=C(c1ccc2ccoc2c1)*; NMeA = CN[C@@H](C)C(=O)O; Dab = NCC[C@H](N)C(=O)O; X45 = c1ccc2sc(N*)cc2c1; Dap = NC[C@H](N)C(=O)O; CO = O=C([*:1])[*:2]

By pIC50 is commonly meant the negative decadic logarithm of the IC50, by convention in mol/L.

T1 sequence (Q9NZQ7 18-239): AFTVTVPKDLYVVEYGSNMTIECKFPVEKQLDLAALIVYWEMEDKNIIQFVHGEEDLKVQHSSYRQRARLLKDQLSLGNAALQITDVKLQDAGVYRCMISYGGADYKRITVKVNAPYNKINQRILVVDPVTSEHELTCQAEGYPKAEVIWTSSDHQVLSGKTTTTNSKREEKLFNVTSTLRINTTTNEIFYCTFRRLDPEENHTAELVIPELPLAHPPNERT

Regarding `CCCC[C@H]1C(=O)N(C)[C@@H](CCCC)C(=O)N[C@@H](CC(C)C)C(=O)N[C@H](C(=O)NCC(N)=O)CSCC(=O)N[C@@H](Cc2ccc(O)cc2)C(=O)N(C)[C@@H](C)C(=O)N[C@@H](CC(N)=O)C(=O)N2CCC[C@H]2C(=O)N[C@@H](CNC(=O)c2ccnc3ccc(OC)cc23)C(=O)N[C@@H](CC(C)C)C(=O)N2C[C@H](O)C[C@H]2C(=O)N[C@@H](Cc2c[nH]c3ccccc23)C(=O)N[C@@H](CCNC(=O)c2ccnc3ccc(OC)cc23)C(=O)N[C@@H](Cc2cn(CC(=O)OC)c3ccccc23)C(=O)N1C` [Example 3010] ({CH2CO}-Y[NMeA]NP[Dap](X72)L[Hyp]W[Dab](X72)[Trp(1-CH2CO2Me)][NMeNle][NMeNle]LCG-NH2; thioether N-14), the pIC50 under setting [1] was 8.11.

Consider `CCCC[C@H]1C(=O)N(C)[C@@H](CCCC)C(=O)N[C@@H](CC(C)C)C(=O)N[C@H](C(=O)NCC(N)=O)CSCC(=O)N[C@@H](Cc2ccc(O)cc2)C(=O)N(C)[C@@H](C)C(=O)N[C@@H](CC(N)=O)C(=O)N2CCC[C@H]2C(=O)N[C@@H](CNC(=O)c2ccc3ccoc3c2)C(=O)N[C@@H](CC(C)C)C(=O)N2C[C@H](O)C[C@H]2C(=O)N[C@@H](Cc2c[nH]c3ccccc23)C(=O)N[C@@H](CCNC(=O)c2ccc3ccoc3c2)C(=O)N[C@@H](Cc2cn(CC(=O)OC)c3ccccc23)C(=O)N1C` [Example 3011] ({CH2CO}-Y[NMeA]NP[Dap](X48)L[Hyp]W[Dab](X48)[Trp(1-CH2CO2Me)][NMeNle][NMeNle]LCG-NH2; thioether N-14), for which, under setting [1], the pIC50 was 8.09.

As to `CCCC[C@H]1C(=O)N(C)[C@@H](CCCC)C(=O)N[C@@H](CC(C)C)C(=O)N[C@H](C(=O)NCC(N)=O)CSCC(=O)N[C@@H](Cc2ccc(O)cc2)C(=O)N(C)[C@@H](C)C(=O)N[C@@H](CC(N)=O)C(=O)N2CCC[C@H]2C(=O)N[C@@H](CNC(=O)c2cc3ccccc3o2)C(=O)N[C@@H](CC(C)C)C(=O)N2C[C@H](O)C[C@H]2C(=O)N[C@@H](Cc2c[nH]c3ccccc23)C(=O)N[C@@H](CCNC(=O)c2cc3ccccc3o2)C(=O)N[C@@H](Cc2cn(CC(=O)OC)c3ccccc23)C(=O)N1C` [Example 3012] ({CH2CO}-Y[NMeA]NP[Dap](Benzofuran(2-CO))L[Hyp]W[Dab](Benzofuran(2-CO))[Trp(1-CH2CO2Me)][NMeNle][NMeNle]LCG-NH2; thioether N-14), under setting [1], the pIC50 is 8.28.

On to `CCCC[C@H]1C(=O)N(C)[C@@H](CCCC)C(=O)N[C@@H](CC(C)C)C(=O)N[C@H](C(=O)NCC(N)=O)CSCC(=O)N[C@@H](Cc2ccc(O)cc2)C(=O)N(C)[C@@H](C)C(=O)N[C@@H](CC(N)=O)C(=O)N2CCC[C@H]2C(=O)N[C@@H](CNC(=S)Nc2ccc3ccccc3c2)C(=O)N[C@@H](CC(C)C)C(=O)N2C[C@H](O)C[C@H]2C(=O)N[C@@H](Cc2c[nH]c3ccccc23)C(=O)N[C@@H](CCNC(=S)Nc2ccc3ccccc3c2)C(=O)N[C@@H](Cc2cn(CC(=O)O)c3ccccc23)C(=O)N1C` [Example 3014] ({CH2CO}-Y[NMeA]NP[Dap](X12)L[Hyp]W[Dab](X12)[Trp(1-CH2COOH)][NMeNle][NMeNle]LCG-NH2; thioether N-14), for which the pIC50 under setting [1] was 8.31.

For `CCCC[C@H]1C(=O)N(C)[C@@H](CCCC)C(=O)N[C@@H](CC(C)C)C(=O)N[C@H](C(=O)NCC(N)=O)CSCC(=O)N[C@@H](Cc2ccc(O)cc2)C(=O)N(C)[C@@H](C)C(=O)N[C@@H](CC(N)=O)C(=O)N2CCC[C@H]2C(=O)N[C@@H](CNC(=O)Nc2cccc3c2CCCC3)C(=O)N[C@@H](CC(C)C)C(=O)N2C[C@H](O)C[C@H]2C(=O)N[C@@H](Cc2c[nH]c3ccccc23)C(=O)N[C@@H](CCNC(=O)Nc2cccc3c2CCCC3)C(=O)N[C@@H](Cc2cn(CC(=O)O)c3ccccc23)C(=O)N1C` [Example 3015] ({CH2CO}-Y[NMeA]NP[Dap]([CO-X93])L[Hyp]W[Dab]([CO-X93])[Trp(1-CH2COOH)][NMeNle][NMeNle]LCG-NH2; thioether N-14), the negative logarithm of the IC50 (pIC50) was 9.15.

On to `CCCC[C@H]1C(=O)N(C)[C@@H](CCCC)C(=O)N[C@@H](CC(C)C)C(=O)N[C@H](C(=O)NCC(N)=O)CSCC(=O)N[C@@H](Cc2ccc(O)cc2)C(=O)N(C)[C@@H](C)C(=O)N[C@@H](CC(N)=O)C(=O)N2CCC[C@H]2C(=O)N[C@@H](CNC(=S)Nc2cccc3nsnc23)C(=O)N[C@@H](CC(C)C)C(=O)N2C[C@H](O)C[C@H]2C(=O)N[C@@H](Cc2c[nH]c3ccccc23)C(=O)N[C@@H](CCN)C(=O)N[C@@H](Cc2cn(CC(=O)O)c3ccccc23)C(=O)N1C` [Example 3016] ({CH2CO}-Y[NMeA]NP[Dap](X82)L[Hyp]W[Dab][Trp(1-CH2COOH)][NMeNle][NMeNle]LCG-NH2; thioether N-14), for which the pIC50 under setting [1] is 9.22.

`CCCC[C@H]1C(=O)N(C)[C@@H](CCCC)C(=O)N[C@@H](CC(C)C)C(=O)N[C@H](C(=O)NCC(N)=O)CSCC(=O)N[C@@H](Cc2ccc(O)cc2)C(=O)N(C)[C@@H](C)C(=O)N[C@@H](CC(N)=O)C(=O)N2CCC[C@H]2C(=O)N[C@@H](CNC(=S)Nc2cccc3c(C(N)=O)c[nH]c23)C(=O)N[C@@H](CC(C)C)C(=O)N2C[C@H](O)C[C@H]2C(=O)N[C@@H](Cc2c[nH]c3ccccc23)C(=O)N[C@@H](CCN)C(=O)N[C@@H](Cc2cn(CC(=O)O)c3ccccc23)C(=O)N1C` [Example 3017] ({CH2CO}-Y[NMeA]NP[Dap](X8)L[Hyp]W[Dab][Trp(1-CH2COOH)][NMeNle][NMeNle]LCG-NH2; thioether N-14): the pIC50 under setting [1] was 8.44.

As for `CCCC[C@H]1C(=O)N(C)[C@@H](CCCC)C(=O)N[C@@H](CC(C)C)C(=O)N[C@H](C(=O)NCC(N)=O)CSCC(=O)N[C@@H](Cc2ccc(O)cc2)C(=O)N(C)[C@@H](C)C(=O)N[C@@H](CC(N)=O)C(=O)N2CCC[C@H]2C(=O)N[C@@H](CNC(=S)Nc2cccc3ncccc23)C(=O)N[C@@H](CC(C)C)C(=O)N2C[C@H](O)C[C@H]2C(=O)N[C@@H](Cc2c[nH]c3ccccc23)C(=O)N[C@@H](CCN)C(=O)N[C@@H](Cc2cn(CC(=O)O)c3ccccc23)C(=O)N1C` [Example 3018] ({CH2CO}-Y[NMeA]NP[Dap](X54)L[Hyp]W[Dab][Trp(1-CH2COOH)][NMeNle][NMeNle]LCG-NH2; thioether N-14), the pIC50 under setting [1] is 8.42.

In the case of `CCCC[C@H]1C(=O)N(C)[C@@H](CCCC)C(=O)N[C@@H](CC(C)C)C(=O)N[C@H](C(=O)NCC(N)=O)CSCC(=O)N[C@@H](Cc2ccc(O)cc2)C(=O)N(C)[C@@H](C)C(=O)N[C@@H](CC(N)=O)C(=O)N2CCC[C@H]2C(=O)N[C@@H](CNC(=S)Nc2cccc3c(Cl)c[nH]c23)C(=O)N[C@@H](CC(C)C)C(=O)N2C[C@H](O)C[C@H]2C(=O)N[C@@H](Cc2c[nH]c3ccccc23)C(=O)N[C@@H](CCNC(=S)Nc2cccc3c(Cl)c[nH]c23)C(=O)N[C@@H](Cc2cn(CC(=O)O)c3ccccc23)C(=O)N1C` [Example 3019] ({CH2CO}-Y[NMeA]NP[Dap](X31)L[Hyp]W[Dab](X31)[Trp(1-CH2COOH)][NMeNle][NMeNle]LCG-NH2; thioether N-14), the pIC50 under setting [1] was 8.48.

For `CCCC[C@H]1C(=O)N(C)[C@@H](CCCC)C(=O)N[C@@H](CC(C)C)C(=O)N[C@H](C(=O)NCC(N)=O)CSCC(=O)N[C@@H](Cc2ccc(O)cc2)C(=O)N(C)[C@@H](C)C(=O)N[C@@H](CC(N)=O)C(=O)N2CCC[C@H]2C(=O)N[C@@H](CNC(=S)Nc2cccc3c(C)c[nH]c23)C(=O)N[C@@H](CC(C)C)C(=O)N2C[C@H](O)C[C@H]2C(=O)N[C@@H](Cc2c[nH]c3ccccc23)C(=O)N[C@@H](CCN)C(=O)N[C@@H](Cc2cn(CC(=O)O)c3ccccc23)C(=O)N1C` [Example 3020] ({CH2CO}-Y[NMeA]NP[Dap](X14)L[Hyp]W[Dab][Trp(1-CH2COOH)][NMeNle][NMeNle]LCG-NH2; thioether N-14), the negative logarithm of the IC50 (pIC50) under setting [1] was 8.60.

As to `CCCC[C@H]1C(=O)N(C)[C@@H](CCCC)C(=O)N[C@@H](CC(C)C)C(=O)N[C@H](C(=O)NCC(N)=O)CSCC(=O)N[C@@H](Cc2ccc(O)cc2)C(=O)N(C)[C@@H](C)C(=O)N[C@@H](CC(N)=O)C(=O)N2CCC[C@H]2C(=O)N[C@@H](CNC(=O)Nc2cc3ccccc3s2)C(=O)N[C@@H](CC(C)C)C(=O)N2C[C@H](O)C[C@H]2C(=O)N[C@@H](Cc2c[nH]c3ccccc23)C(=O)N[C@@H](CCNC(=O)Nc2cc3ccccc3s2)C(=O)N[C@@H](Cc2cn(CC(=O)O)c3ccccc23)C(=O)N1C` [Example 3022] ({CH2CO}-Y[NMeA]NP[Dap]([CO-X45])L[Hyp]W[Dab]([CO-X45])[Trp(1-CH2COOH)][NMeNle][NMeNle]LCG-NH2; thioether N-14), under setting [1], the pIC50 is 7.96.

Consider `CCCC[C@H]1C(=O)N(C)[C@@H](CCCC)C(=O)N[C@@H](CC(C)C)C(=O)N[C@H](C(=O)NCC(N)=O)CSCC(=O)N[C@@H](Cc2ccc(O)cc2)C(=O)N(C)[C@@H](C)C(=O)N[C@@H](CC(N)=O)C(=O)N2CCC[C@H]2C(=O)N[C@@H](CNC(=S)Nc2cccc3c(C(N)=O)c[nH]c23)C(=O)N[C@@H](CC(C)C)C(=O)N2C[C@H](O)C[C@H]2C(=O)N[C@@H](Cc2c[nH]c3ccccc23)C(=O)N[C@@H](CCNC(=S)Nc2cccc3c(C(N)=O)c[nH]c23)C(=O)N[C@@H](Cc2cn(CC(=O)O)c3ccccc23)C(=O)N1C` [Example 3023] ({CH2CO}-Y[NMeA]NP[Dap](X8)L[Hyp]W[Dab](X8)[Trp(1-CH2COOH)][NMeNle][NMeNle]LCG-NH2; thioether N-14), for which, under setting [1], the pIC50 is 8.80.

Consider `CCCC[C@H]1C(=O)N(C)[C@@H](CCCC)C(=O)N[C@@H](CC(C)C)C(=O)N[C@H](C(=O)NCC(N)=O)CSCC(=O)N[C@@H](Cc2ccc(O)cc2)C(=O)N(C)[C@@H](C)C(=O)N[C@@H](CC(N)=O)C(=O)N2CCC[C@H]2C(=O)N[C@@H](CNC(=S)Nc2cccc3ncccc23)C(=O)N[C@@H](CC(C)C)C(=O)N2C[C@H](O)C[C@H]2C(=O)N[C@@H](Cc2c[nH]c3ccccc23)C(=O)N[C@@H](CCNC(=S)Nc2cccc3ncccc23)C(=O)N[C@@H](Cc2cn(CC(=O)O)c3ccccc23)C(=O)N1C` [Example 3024] ({CH2CO}-Y[NMeA]NP[Dap](X54)L[Hyp]W[Dab](X54)[Trp(1-CH2COOH)][NMeNle][NMeNle]LCG-NH2; thioether N-14), for which the pIC50 under setting [1] was 8.49.
